# Experimental data from US6015925A, “Antifungal agents” (Pola Chemical Industries, Inc., priority 1998, dated 2000).
# System: T. mentagrophytes (TIMM1189)
# Test: Antifungal Activity Test (Measurement of Minimum Inhibitory Concentration)
# Format: cell-based
# Details: Trichophyton mentagrophytes, 168 h, Sabouraud dextrose broth, 27° C., 1 week, visual determination, read-out: MIC (minimum concentration at which growth was completely inhibited)
# Protocol: Antifungal activities of compounds according to the present invention against Trichophyton sp. were determined. Described specifically, T. mentagrophytes (TIMM1189) was cultured at 27° C. for 2 weeks on Sabouraud dextrose agar slants in advance, whereby it was allowed to form sufficient conidia. The conidia were washed in a sterilized physiological saline, which contained Tween 80 at a concentration of 0.05 wt./vol. %, by rubbing the conidia with a platinum loop, whereby the conidia were suspended. The suspension was filtered through a double-layer gauze so that only the conidia were collected in a form suspended in the physiological saline. The suspension was diluted to adjust the concentration of conidia to 1×10^5 conidia/ml, whereby a test fungus solution was obtained. Meanwhile, 4 mg of one of the test compounds were taken, to which 1 ml of dimethyl sulfoxide was added to prepare a stock. The stock was subjected to doubling dilution with ethanol to prepare diluted drug solutions. To each well of a 96-well microplate for tissue culture, 175 μl of Sabouraud dextrose broth, 5 μl of the corresponding drug solution and 20 μl of the test fungus solution were added. Subsequent to thorough mixing, the fungus strain was cultured at 27° C. for 1 week.
row,SMILES,MIC [µg/mL]
1,"CN(C/C=C\C#CC(C)(C)C)Cc1ccccc1-c1ccccc1 [Compound 6, cis-N-(6,6-dimethyl-2-hepten-4-yn-1-yl)-N-methyl-2-phenylbenzylamine]",100
2,"CN(Cc1ccc(C(C)(C)C)cc1)Cc1ccccc1-c1ccccc1 [Compound 1, 4-tert-butyl-N-methyl-N-(2-phenylbenzyl)benzylamine]",12.5
3,"CN(C/C=C/C#CC(C)(C)C)Cc1ccc(-c2ccccc2)cc1 [Compound 9, trans-N-(6,6-dimethyl-2-hepten-4-yn-1-yl)-N-methyl-4-phenylbenzylamine]",12.5
4,"CN(C/C=C/C#CC(C)(C)C)Cc1ccccc1-c1ccccc1 [Compound 5, trans-N-(6,6-dimethyl-2-hepten-4-yn-1-yl)-N-methyl-2-phenylbenzylamine]",12.5
5,"CN(Cc1ccc(C(C)(C)C)cc1)C(c1ccccc1)c1ccccc1 [Compound 4, 4-tert-butyl-N-diphenylmethyl-N-methylbenzylamine]",100
6,"CN(C/C=C\C#CC(C)(C)C)Cc1cccc(-c2ccccc2)c1 [Compound 8, cis-N-(6,6-dimethyl-2-hepten-4-yn-1-yl)-N-methyl-3-phenylbenzylamine]",12.5
7,"CN(Cc1ccc(-c2ccccc2)cc1)Cc1ccc(C(C)(C)C)cc1 [Compound 3, 4-tert-butyl-N-methyl-N-(4-phenylbenzyl)benzylamine]",12.5
8,"CN(CC=CC#CC(C)(C)C)C(c1ccccc1)c1ccccc1 [Compound 11, N-(6,6-dimethyl-2-hepten-4-yn-1-yl)-N-methyl(diphenylmethyl)amine]",100
9,"CN(C/C=C/C#CC(C)(C)C)Cc1cccc(-c2ccccc2)c1 [Compound 7, trans-N-(6,6-dimethyl-2-hepten-4-yn-1-yl)-N-methyl-3-phenylbenzylamine]",12.5
10,"CN(Cc1ccc(C(C)(C)C)cc1)Cc1cccc(-c2ccccc2)c1 [Compound 2, 4-tert-butyl-N-methyl-N-(3-phenylbenzyl)benzylamine]",25
